Consider 15 compounds from paper PMC11189516, “Structure-guided conversion from an anaplastic lymphoma kinase inhibitor into Plasmodium lysyl-tRNA synthetase selective inhibitors” (Communications Biology, 2024).

The experiment concerns the target T1, PfLysRS (Plasmodium falciparum, UniProt Q8IDJ8).
T1 construct: PfLysRS (77–583) was constructed in the vector pET20b, with a C-terminal 6×His tag; 6xHis (C); made in house; host or cells: E. coli BL21 (DE3)
In words: Thermal shift assay. The format is binding. As to the method:
PfLysRS protein was prepared at 10 μM concentration in a buffer containing 20 mM Tris pH 8.0, 200 mM NaCl, 500 μM L-lysine, and 200 μM Compound. Aliquots (18 µL) were added to a 96-well PCR plate and incubated at ambient temperature for 10 min. SYPRO Orange dye (Sigma) was diluted in the assay buffer containing 20 mM Tris pH 8.0 and 200 mM NaCl to a 40× concentration, and 2 µL of the 40× dye solution was added to the PCR plate to bring the final assay volume to 20 µL. After complete mixing, the final solutions were heated from 25 to 90 °C at a rate of 0.015 °C per sec, and fluorescence signals were monitored by QuantStudio 3 (Applied Biosystems by Thermo Fisher Scientific).

Values joined by “and” are separate entries in the source; they are usually repeats but may differ in a detail not shown here. Identical values can stand only once.

T1 sequence (Q8IDJ8 entry or part of it): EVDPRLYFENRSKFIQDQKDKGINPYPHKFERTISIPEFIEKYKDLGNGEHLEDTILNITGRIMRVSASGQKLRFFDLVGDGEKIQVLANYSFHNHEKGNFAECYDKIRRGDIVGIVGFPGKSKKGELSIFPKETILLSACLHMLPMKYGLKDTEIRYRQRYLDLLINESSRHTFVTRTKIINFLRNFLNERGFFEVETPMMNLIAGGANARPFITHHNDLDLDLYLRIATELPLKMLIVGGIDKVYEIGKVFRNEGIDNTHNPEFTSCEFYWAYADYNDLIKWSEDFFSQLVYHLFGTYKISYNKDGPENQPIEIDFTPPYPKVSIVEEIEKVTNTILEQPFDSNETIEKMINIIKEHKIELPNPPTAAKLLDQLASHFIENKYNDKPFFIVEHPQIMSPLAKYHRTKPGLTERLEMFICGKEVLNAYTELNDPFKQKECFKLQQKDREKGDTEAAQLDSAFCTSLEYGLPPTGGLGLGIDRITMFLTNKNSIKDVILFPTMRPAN

For the compound `COc1cc(N2CCC(N3CCN(C)CC3)CC2)ccc1Nc1ncnc(Nc2ccccc2C2C=CCCC2)n1` (centres unmarked) [Compound 31], the “ΔTm of PfLysRS” value (in the presence of L-lysine) came out at 2.0 °C.
Regarding `COc1cc(N2CCC(N3CCN(C)CC3)CC2)ccc1Nc1ncnc(Nc2ccccc2C2CCCCC2)n1` [Compound 32], the “ΔTm of PfLysRS” value (in the presence of L-lysine) was determined as 4.1 °C.
The same measure, in the same setting: the value for `COc1ccc(C(F)(F)F)cc1Nc1ncnc(Nc2ccccc2S(=O)(=O)C(C)C)n1` [Compound 33] was -0.1 °C; that for `COc1ccc(Nc2ncnc(Nc3ccccc3S(=O)(=O)C(C)C)n2)c(OC)c1` [Compound 35] was 6.4 °C.
With `COc1ccc(OC)c(Nc2cccc(Nc3ccccc3S(=O)(=O)C(C)C)n2)c1` [Compound 36b], the “ΔTm of PfLysRS” value (in the presence of L-lysine) is 0.1 °C.
Still for that read-out and setting: the value for `COc1ccc(OC)c(Nc2cncc(Nc3ccccc3S(=O)(=O)C(C)C)n2)c1` [Compound 36c] was 0 °C.
Still for that read-out and setting: under `COc1ccc(OC)c(Nc2cccc(Nc3ccccc3S(=O)(=O)C(C)C)c2)c1` [Compound 36d] stands −0.2 °C; under `COc1ccc(OC)c(Nc2cc(Nc3ccccc3S(=O)(=O)C(C)C)ncn2)c1` [Compound 36e], 3.1 °C.
For `COc1ccc(OC)c(Nc2nccc(Nc3ccccc3S(=O)(=O)C(C)C)n2)c1` [Compound 36f], the “ΔTm of PfLysRS” value (in the presence of L-lysine) worked out at 2.4 °C.
On the same count and under the same terms, the value for `CC(C)S(=O)(=O)c1ccccc1Nc1ncnc(Nc2ccccc2S(=O)(=O)C(C)C)n1` [Compound 37] was 0.5 °C.
Consider `COc1cccnc1Nc1ncnc(Nc2ccccc2S(=O)(=O)C(C)C)n1` [Compound 38b], for which, under “+Lysine”, the “Tm of PfLysRS, Average” value was found to be 42.100 °C; the “Tm of PfLysRS, single repeat” value is 42.223 °C and 42.193 °C and 42.039 °C and 41.946 °C. Besides, the ΔTm at 200 µM (in the presence of L-lysine) stood at 2 °C.
For the compound `COc1ccc(C)cc1Nc1ncnc(Nc2ccccc2S(=O)(=O)C(C)C)n1` [Compound 39], the “ΔTm of PfLysRS” value (in the presence of L-lysine) came to 4.1 °C.
For `COc1ccc([N+](=O)[O-])cc1Nc1ncnc(Nc2ccccc2S(=O)(=O)C(C)C)n1` [Compound 40], the “ΔTm of PfLysRS” value (in the presence of L-lysine) worked out at 2.5 °C.
Still for that read-out and setting: under `COc1ccc(F)cc1Nc1ncnc(Nc2ccccc2S(=O)(=O)C(C)C)n1` [Compound 41] stands 1.9 °C.
Consider `COc1ccc(OC(F)(F)F)cc1Nc1ncnc(Nc2ccccc2S(=O)(=O)C(C)C)n1` [Compound 42], for which the “ΔTm of PfLysRS” value (in the presence of L-lysine) is 1.5 °C.
